Measurements: patent US20160355782A1, “METHOD FOR ENHANCING DIFFERENTIATION OF DOPAMINERGIC NEURONS” (Buddhist Tzu Chi Medical Foundation, priority 2015, published 2016)

Key:
[1] = tested on: human DA neuroblastoma SH-SY5Y cells; experiment: Western blot of TH protein in SH-SY5Y cells; type: cell-based; conditions: UCN vs control medium
Description: Human DA neuroblastoma SH-SY5Y cells were grown in Minimal Essential Medium (MEM)/F12 medium containing 10% FBS, 2 mM L-glutamine, 100 μM nonessential amino acids, 100 U/mL penicillin, and 100 μg/mL streptomycin. Cells were incubated at 37° C. under saturating humidity in 5% CO2/95% air.
For Western blot analysis, VM precursor cells were lysed in M-PER® Mammalian Protein Extraction Reagent (Pierce). Protein concentration was determined by Bradford assay (Bio-Rad, Hercules, Calif.). 30˜50 μg of protein sample was separated on 10˜12% sodium dodecyl sulphate-polyacrylamide gel (SDS-PAGE) and transferred to immobilon polyvinylidene difluoride (PVDF) membranes (Merck Millipore). The membranes were incubated in Tris-buffered saline (TBST, 0.1 M Tris/HCl, pH 7.4, 0.9% NaCl, 0.1% Tween 20) supplemented with 5% non-fat dry milk for 1 h to block nonspecific binding. […] The antigen-antibody complex was detected by using an ECL chemi-luminescence detection system (PerkinElmer, Boston, Mass.). The intensity of the bands was quantified with a GS-800 calibrated densitometer (Bio-Rad), and calculated as the optical density X area of bands.

[2] = tested on: Nurr1 complexes in VM precursor cells; experiment: Immuno-precipitation with anti-Nurr1 antibody in VM precursor cells; type: cell-based, rat; conditions: UCN, 24 hours
Description: For immuno-precipitation, VM precursor cells were treated with UCN for 24 hours and then harvested with M-PER® Mammalian Protein Extraction Reagent (Pierce, Rockford, Ill.) containing 1 mM PMSF, 10 μg/mL aprotinin, 10 μg/mL leupeptin, and 5 μg/mL pepstatin A. The cytosolic lysates (250 μg of protein) were incubated with a rabbit anti-Nurr1 antibody (Santa Cruz Biotechnology) with gentle rocking overnight at 4° C. PureProteome™ protein G magnetic beads (Merck Millipore, Billerica, Mass.) were added (15 μL of suspension) and rotated for 3 h at 4° C. After washing the beads with ice-cold immuno-precipitation buffer (20 mM Tris, pH 7.5, 150 mM NaCl, 1 mM EDTA, 1 mM EGTA, 1% Triton X-100, 2.5 mM sodium pyrophosphate, 1 mM β-glycerolphosphate, 1 mM Na3VO4, 1 μg/mL leupeptin, 1 mM PMSF), immuno-precipitated proteins were eluted in sample buffer, and subjected to Western blot analyses with anti-MeCP2, -CoREST, -HDAC1, -Nurr1, -Foxa2, or -Pitx3 antibodies.

[3] = tested on: VM of E16.5 rat embryos; experiment: In vivo DA neuron differentiation in VM of rat embryos (immuno-histochemistry)
Description: The pregnant rats on day 12.5 of gestation were intra-peritoneally injected with saline or 10 μg/kg UCN every 24 hours for 3 days (FIGS. 7H & 7I) or 4 days (FIGS. 7A, 7B, & 7E-7G) before sacrifice. FIG. 7A is an image of immuno-staining against TH of rat E16.5 mesencephalon. FIG. 7B is cell counting analysis of TH^+ cells in the VM of E16.5 saline and UCN-treated embryos (**p<0.01 compared with saline group). […] FIGS. 7H and 7I show histone H3 acetylation (H) and Nurr1 recruitments (I) at the TH promoter by ChIP analyses which were performed with chromatin prepared from E15.5 VM tissue of saline or UCN-treated embryos (*p<0.05; **p<0.01 compared with saline groups). Con: control medium.
For immuno-histochemistry, rat embryos were perfused with 4% paraformaldehyde, cryopreserved with 30% sucrose in PBS overnight, embedded in Tissue Tek OCT compound (Sakura Finetek, Torrance, Calif.), and then frozen at −80° C. For Nurr1 staining, the embryos were perfused with 4% paraformaldehyde/0.15% picric acid followed by soaking in the same solution overnight at 4° C. Coronal sections (16 μm thick) were blocked with 2% FBS and 3% normal goat or normal donkey serum for 1 h at room temperature, and subsequently incubated with primary antibodies overnight at room temperature. Primary antibodies were rabbit anti-Lmx1b (1:3000), guinea-pig anti-Lmx1b (1:1500), rabbit anti-UCN (1:200), goat anti-CRHR1 (1:100), rabbit anti-CRHR2 (1:250), mouse anti-Nurr1 (1:100), rabbit anti-Nurr1 (1:100), and mouse anti-TH (1:2000). After washing with PBS, secondary antibodies conjugated to the FITC or rhodamine were applied to sections for 1 h. Sections were examined with fluorescent microscope or confocal microscope. Quantitative cell counts were performed in every third section through the entire A9-A10 populations in 5-10 embryos per condition.

[4] = tested on: midbrain explants; experiment: Midbrain explant cultures, TH+ cell numbers; type: cell-based, rat; conditions: UCN, 3 days
Description: Midbrain explants were dissected from E13.5 embryos by the method known by a person skilled in the art, for example as the protocol described by Baizabal and Covarrubias (2009) and performed with some modifications.
The dorsal midline of the explants was cut and the tissue was placed on porous (0.4 μm) transparent membrane inserts (25-mm in diameter, Nunc, Roskilde, Denmark) with the ventricular surface facing up. Inserts were then placed into six-well culture plates. Each well contained 1.5 mL of MEM medium supplemented with 10% FBS, 100 U/mL penicillin, and 100 μg/mL streptomycin. Explants were incubated at 37° C. with 5% CO2 for 4 hours, after which the explants were incubated in a serum-free DMEM/F12/N2 medium with or without UCN for 3 days. Midbrain explants were then fixed with 4% paraformaldehyde and immuno-histochemical analysis was performed.

## Urocortin [UCN]
[1]
  TH protein levels: induced the increases
[2]
  amount of Foxa2 that precipitates with Nurr1: markedly enhanced
  interaction between Pitx3 and Nurr1 proteins: not significantly altered
[3]; UCN treated vs saline-treated embryos, E16.5
  proportion of TH+/Nurr1+ cells in the VM: significant proportion of the Nurr1+ cells differentiate into TH+ neurons
[3]; pregnant rats, 10 μg/kg UCN i.p. every 24 hours for 4 days, E16.5 embryos
  number of ventral mesencephalic TH+ cells: increased number
[3]; saline vs UCN-treated embryos, E16.5
  Nurr1+ cell numbers in the VM: no significant difference
[4]
  number of TH+ cells in midbrain explants: increases
